# Measured values as given in PubChem BioAssay (NCI).
# Several values for one entry are separate records, joined by “and”; a condition that tells them apart may be missing. Equal values may be shown once.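 Each compound was tested at five concentrations against cells in 96-well plates for 48 hours. GI50 is the concentration that inhibits growth by half. Definition used: TGI = concentration required for complete inhibition of growth.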
# Legend:
# Test in all cases: NCI anticancer screen, dose series, 48 h
# [1] = tested on: TK-10 renal
# [2] = tested on: U251 CNS
# [3] = tested on: NCI/ADR-RES ovarian
# [4] = tested on: RXF 393 renal
# [5] = tested on: NCI-H226 lung
# [6] = tested on: MDA-N
# [7] = tested on: CAKI-1 renal
# [8] = tested on: OVCAR-5 ovarian
# [9] = tested on: M14 melanoma
SMILES,TGI [1] [µM],TGI [2] [µM],TGI [3] [µM],TGI [4] [µM],TGI [5] [µM],TGI [6] [µM],TGI [7] [µM],TGI [8] [µM],TGI [9] [µM],GI50 [2],GI50 [9]
COC(=O)C1(NC(=O)C(CC(=O)OCc2ccccc2)NC(=O)OCc2ccccc2)CCCCCC1 (centres undefined),> 100,> 100,82.5,> 100,72.7,61.4,48.5,> 100,> 100,,
CCOC(=O)c1c(C)n(Cc2ccc(Cl)cc2Cl)c2c1cc(O)c1[nH]c3c(c12)CCCC3,45.4,> 100,43.4,41.2,45.5,45.6,56.4,> 100,86.3,,
COc1ccc([C@H]2[C@H]3COC(=O)[C@H]3C(C#N)=C3Sc4ccccc4N32)cc1,> 100,> 100,> 62.5,38.4,> 100,> 74.4,> 62.3,> 100,> 100,,
CC(=O)c1c(-c2cccc3ccccc23)c(C#N)c(=S)n(C2OC(CO)C(O)C(O)C2O)c1C (centres undefined),> 100,> 100,> 100,> 100,> 100,> 100,> 100,> 100,> 100,> 100 µM and 48.9 µM,> 100 µM and 42.6 µM
NC(=O)Nc1c(Cl)cc(S(N)(=O)=O)cc1Cl,> 100,> 100,> 100,> 100,> 100,> 100,> 100,> 100,> 100,,
OC1[C@@H]2[C@@H](O)CCCN2C[C@@H](O)[C@H]1O (some centres undefined),> 100,> 100,> 100,> 100,> 100,> 100,> 100,> 100,> 100,,
COc1ccc(N2CC(=O)N(C(=O)COc3ccc(OCC(=O)N4C(=O)CN(c5ccc(OC)cc5)C4=S)cc3)C2=S)cc1,> 100,> 100,> 100,> 100,> 100,> 100,> 100,> 100,> 100,,
CC1CC[C@@]2(OC1)OC1C[C@H]3[C@@H]4CC=C5CC(OC6OC(CO)C(OC7OC(CO)C(O)C(OC8OCC(O)C(O)C8O)C7OC7OC(CO)C(OC8OC(C)C(OC9OC(C)C(O)C(O)C9O)C(O)C8O)C(O)C7O)C(O)C6O)CCC5(C)[C@H]4CCC3(C)C1[C@@H]2C (some centres undefined),15.8,16.3,17.8,14.2,18.1,16.2,15.3,14.3,10.1,,
